# Results published in patent US8075921B2, “Rapamycin-resistant T cells and therapeutic uses thereof” (The United States of America as represented by the …, priority 2001, dated 2011).
# Assays:
# naïve human CD4 cells = experiment: Co-stimulated expansion of flow-sorted naïve CD4 cells with or without rapamycin; format: cell-based; conditions: in rapamycin relative to control culture
# Source text: (§1) To this extent, naïve or memory human CD4 cells were purified by flow sorting, and co-stimulated either with or without rapamycin (results in FIG. 31).
# [1] = tested on: memory CD45RO^+ sorted cells; experiment: Co-stimulated expansion of flow-sorted memory CD4 cells with or without rapamycin; format: cell-based, human; conditions: in rapamycin relative to control culture
# Source text: as §1
compound,measurement,setting,value
CO[C@H]1C[C@@H]2CC[C@@H](C)[C@@](O)(O2)C(=O)C(=O)N2CCCC[C@H]2C(=O)O[C@H]([C@H](C)C[C@@H]2CC[C@@H](O)[C@H](OC)C2)CC(=O)[C@H](C)/C=C(\C)[C@@H](O)[C@@H](OC)C(=O)[C@H](C)C[C@H](C)/C=C/C=C/C=C/1C [rapamycin],reduction in CD4 yield,naïve human CD4 cells,~25%
same,reduction in CD4+ T cell expansion,[1],~50%
